{
  "source": "PubChem BioAssay AID1259407",
  "about": "(Chemical Carcinogenesis Research Information System (CCRIS), 2018)",
  "system": "CCRIS mutagenicity, Ames/micronucleus/aberration tests",
  "assay": "CCRIS mutagenicity studies",
  "key": {"[1]": {"conditions": "Test System: AMES SALMONELLA TYPHIMURIUM, Strain/Indicator: TA98, Metabolic Activation: NONE, Method: PREINCUBATION"}, "[2]": {"conditions": "Test System: AMES SALMONELLA TYPHIMURIUM, Strain/Indicator: TA100, Metabolic Activation: NONE, Method: PREINCUBATION"}},
  "note": "Calls of active or inactive are those of the source. How the calls were made is not given here.",
  "data": [
    {"molecule": "CC1=CC(=O)c2c(O)cccc2C1=O", "values": [
      {"measurement": "mutagenic call", "setting": "Test System: AMES SALMONELLA TYPHIMURIUM, Strain/Indicator: TA97, Metabolic Activation: NONE, Method: PREINCUBATION", "result": "active; positive"},
      {"measurement": "mutagenic call", "setting": "Test System: AMES SALMONELLA TYPHIMURIUM, Strain/Indicator: TA97, Metabolic Activation: RAT, LIVER, S-9, PHENOBARBITAL AND 5,6-BENZOFLAVONE, Method: PREINCUBATION", "result": "active; positive"},
      {"measurement": "mutagenic call", "setting": "Test System: AMES SALMONELLA TYPHIMURIUM, Strain/Indicator: TA98, Metabolic Activation: HAMSTER LIVER S-9, AROCLOR 1254, Method: STANDARD PLATE", "result": "inactive; negative"},
      {"measurement": "mutagenic call", "setting": "[1]", "result": "inactive; negative"},
      {"measurement": "mutagenic call", "setting": "Test System: AMES SALMONELLA TYPHIMURIUM, Strain/Indicator: TA98, Metabolic Activation: NONE, Method: STANDARD PLATE", "result": "inactive; negative"},
      {"measurement": "mutagenic call", "setting": "Test System: AMES SALMONELLA TYPHIMURIUM, Strain/Indicator: TA98, Metabolic Activation: RAT LIVER S-9, AROCLOR 1254, Method: STANDARD PLATE", "result": "inactive; negative"},
      {"measurement": "mutagenic call", "setting": "Test System: AMES SALMONELLA TYPHIMURIUM, Strain/Indicator: TA98, Metabolic Activation: RAT, LIVER, S-9, PHENOBARBITAL AND 5,6-BENZOFLAVONE, Method: PREINCUBATION", "result": "inactive; negative"},
      {"measurement": "mutagenic call", "setting": "Test System: AMES SALMONELLA TYPHIMURIUM, Strain/Indicator: TA100, Metabolic Activation: HAMSTER LIVER S-9, AROCLOR 1254, Method: STANDARD PLATE", "result": "inactive; negative"},
      {"measurement": "mutagenic call", "setting": "[2]", "result": "inactive; negative"},
      {"measurement": "mutagenic call", "setting": "Test System: AMES SALMONELLA TYPHIMURIUM, Strain/Indicator: TA100, Metabolic Activation: NONE, Method: STANDARD PLATE", "result": "inactive; negative"},
      {"measurement": "mutagenic call", "setting": "Test System: AMES SALMONELLA TYPHIMURIUM, Strain/Indicator: TA100, Metabolic Activation: RAT LIVER S-9, AROCLOR 1254, Method: STANDARD PLATE", "result": "inactive; negative"},
      {"measurement": "mutagenic call", "setting": "Test System: AMES SALMONELLA TYPHIMURIUM, Strain/Indicator: TA100, Metabolic Activation: RAT, LIVER, S-9, PHENOBARBITAL AND 5,6-BENZOFLAVONE, Method: PREINCUBATION", "result": "active; positive"},
      {"measurement": "mutagenic call", "setting": "Test System: AMES SALMONELLA TYPHIMURIUM, Strain/Indicator: TA102, Metabolic Activation: NONE, Method: PREINCUBATION", "result": "inactive; negative"},
      {"measurement": "mutagenic call", "setting": "Test System: AMES SALMONELLA TYPHIMURIUM, Strain/Indicator: TA102, Metabolic Activation: NONE, Method: STANDARD PLATE", "result": "inactive; negative"},
      {"measurement": "mutagenic call", "setting": "Test System: AMES SALMONELLA TYPHIMURIUM, Strain/Indicator: TA102, Metabolic Activation: RAT, LIVER, S-9, PHENOBARBITAL AND 5,6-BENZOFLAVONE, Method: PREINCUBATION", "result": "inactive; negative"},
      {"measurement": "mutagenic call", "setting": "Test System: AMES SALMONELLA TYPHIMURIUM, Strain/Indicator: TA104, Metabolic Activation: NONE, Method: PREINCUBATION", "result": "active; positive"},
      {"measurement": "mutagenic call", "setting": "Test System: AMES SALMONELLA TYPHIMURIUM, Strain/Indicator: TA104, Metabolic Activation: RAT, LIVER, S-9, PHENOBARBITAL AND 5,6-BENZOFLAVONE, Method: PREINCUBATION", "result": "active; positive"},
      {"measurement": "mutagenic call", "setting": "Test System: AMES SALMONELLA TYPHIMURIUM, Strain/Indicator: TA1535, Metabolic Activation: HAMSTER LIVER S-9, AROCLOR 1254, Method: STANDARD PLATE", "result": "inactive; negative"},
      {"measurement": "mutagenic call", "setting": "Test System: AMES SALMONELLA TYPHIMURIUM, Strain/Indicator: TA1535, Metabolic Activation: NONE, Method: PREINCUBATION", "result": "inactive; negative"},
      {"measurement": "mutagenic call", "setting": "Test System: AMES SALMONELLA TYPHIMURIUM, Strain/Indicator: TA1535, Metabolic Activation: NONE, Method: STANDARD PLATE", "result": "inactive; negative"},
      {"measurement": "mutagenic call", "setting": "Test System: AMES SALMONELLA TYPHIMURIUM, Strain/Indicator: TA1535, Metabolic Activation: RAT LIVER S-9, AROCLOR 1254, Method: STANDARD PLATE", "result": "inactive; negative"},
      {"measurement": "mutagenic call", "setting": "Test System: AMES SALMONELLA TYPHIMURIUM, Strain/Indicator: TA1535, Metabolic Activation: RAT, LIVER, S-9, PHENOBARBITAL AND 5,6-BENZOFLAVONE, Method: PREINCUBATION", "result": "inactive; negative"},
      {"measurement": "mutagenic call", "setting": "Test System: AMES SALMONELLA TYPHIMURIUM, Strain/Indicator: TA1537, Metabolic Activation: HAMSTER LIVER S-9, AROCLOR 1254, Method: STANDARD PLATE", "result": "inactive; negative"},
      {"measurement": "mutagenic call", "setting": "Test System: AMES SALMONELLA TYPHIMURIUM, Strain/Indicator: TA1537, Metabolic Activation: NONE, Method: PREINCUBATION", "result": "inactive; negative"},
      {"measurement": "mutagenic call", "setting": "Test System: AMES SALMONELLA TYPHIMURIUM, Strain/Indicator: TA1537, Metabolic Activation: NONE, Method: STANDARD PLATE", "result": "inactive; negative"},
      {"measurement": "mutagenic call", "setting": "Test System: AMES SALMONELLA TYPHIMURIUM, Strain/Indicator: TA1537, Metabolic Activation: RAT LIVER S-9, AROCLOR 1254, Method: STANDARD PLATE", "result": "inactive; negative"},
      {"measurement": "mutagenic call", "setting": "Test System: AMES SALMONELLA TYPHIMURIUM, Strain/Indicator: TA1537, Metabolic Activation: RAT, LIVER, S-9, PHENOBARBITAL AND 5,6-BENZOFLAVONE, Method: PREINCUBATION", "result": "active; positive"},
      {"measurement": "mutagenic call", "setting": "Test System: AMES SALMONELLA TYPHIMURIUM, Strain/Indicator: TA1538, Metabolic Activation: NONE, Method: PREINCUBATION", "result": "inactive; negative"},
      {"measurement": "mutagenic call", "setting": "Test System: AMES SALMONELLA TYPHIMURIUM, Strain/Indicator: TA1538, Metabolic Activation: RAT, LIVER, S-9, PHENOBARBITAL AND 5,6-BENZOFLAVONE, Method: PREINCUBATION", "result": "inactive; negative"},
      {"measurement": "mutagenic call", "setting": "Test System: AMES SALMONELLA TYPHIMURIUM, Strain/Indicator: TA2637, Metabolic Activation: NONE, Method: PREINCUBATION", "result": "active; positive"},
      {"measurement": "mutagenic call", "setting": "Test System: AMES SALMONELLA TYPHIMURIUM, Strain/Indicator: TA2637, Metabolic Activation: RAT, LIVER, S-9, PHENOBARBITAL AND 5,6-BENZOFLAVONE, Method: PREINCUBATION", "result": "active; positive"},
      {"measurement": "mutagenic call", "setting": "Test System: AMES SALMONELLA TYPHIMURIUM, Strain/Indicator: TA2638, Metabolic Activation: NONE, Method: STANDARD PLATE", "result": "inactive; negative"},
      {"measurement": "mutagenic call", "setting": "Test System: Ames Salmonella typhimurium, Strain/Indicator: TA102, Metabolic Activation: None, Method: Preincubation", "result": "inactive; negative"},
      {"measurement": "mutagenic call", "setting": "Test System: Ames Salmonella typhimurium, Strain/Indicator: TA102, Metabolic Activation: Rat, Liver, S-9, Aroclor 1254 in 0.154 M KCl, Method: Preincubation", "result": "inactive; negative"},
      {"measurement": "mutagenic call", "setting": "Test System: E. COLI, Strain/Indicator: WP2 (PKM101), Metabolic Activation: NONE, Method: STANDARD PLATE", "result": "inactive; negative"},
      {"measurement": "mutagenic call", "setting": "Test System: E. COLI, Strain/Indicator: WP2 UVRA (PKM101), Metabolic Activation: NONE, Method: STANDARD PLATE", "result": "inactive; negative"},
      {"measurement": "mutagenic call", "setting": "Test System: MOUSE LYMPHOMA, Strain/Indicator: L5178Y (TK+/TK-), Metabolic Activation: NONE, Method: SUSPENSION/PLATE", "result": "inactive; positive. reevaluation of results: negative"},
      {"measurement": "mutagenic call", "setting": "Test System: MOUSE LYMPHOMA, Strain/Indicator: L5178Y (TK+/TK-), Metabolic Activation: RAT, LIVER, S-9, AROCLOR 1254, Method: SUSPENSION/PLATE", "result": "active; positive. reevaluation of results: equivocal"}
    ]},
    {"molecule": "CC1(C)CC(N)CC(C)(CN)C1", "note": "(configuration not stated)", "values": [
      {"measurement": "mutagenic call", "setting": "[1]", "result": "inactive; negative"},
      {"measurement": "mutagenic call", "setting": "Test System: AMES SALMONELLA TYPHIMURIUM, Strain/Indicator: TA98, Metabolic Activation: RAT, LIVER, S-9, PCB, Method: PREINCUBATION", "result": "inactive; negative"},
      {"measurement": "mutagenic call", "setting": "[2]", "result": "inactive; negative"},
      {"measurement": "mutagenic call", "setting": "Test System: AMES SALMONELLA TYPHIMURIUM, Strain/Indicator: TA100, Metabolic Activation: RAT, LIVER, S-9, PCB, Method: PREINCUBATION", "result": "inactive; negative"}
    ]}
  ]
}
